US7858776B2, “Lactams and uses thereof” (AstraZeneca AB, priority 2002, dated 2010)
Where a name gives a salt, the structure may show the parent alone.

| Structure (SMILES) | melting point |
| --- | --- |
| C[C@H](NCCc1ccccc1)C(=O)N[C@@H]1C(=O)Nc2ccccc2S[C@@H]1c1ccccc1 (as salt: hydrochloride) [Example 98, N^1-[(2R,3R)-4-Oxo-2-phenyl-2,3,4,5-tetrahydro-1,5-benzothiazepin-3-yl]-N^2-(2-Phenylethyl)-L-alaninamide] | 184 to 195 °C |
| C[C@H](NC(=O)Cc1cc(F)cc(F)c1)C(=O)N[C@@H]1C(=O)NCCS[C@@H]1c1ccccc1 [Example 7, N^2-[(3,5-Difluorophenyl)acetyl]-N^1-[(6R,7R)-5-oxo-7-phenyl-1,4-thiazepan-6-yl]-L-alaninamide] | 128 to 133 °C |
| CC(C)C[C@H](O)C(=O)N[C@@H](C)C(=O)N[C@@H]1C(=O)NCCS[C@@H]1c1ccccc1 [Example 93, N^2-[(2S)-2-Hydroxy-4-methyl-1-oxopentyl]-N^1-[(6R,7R)-5-oxo-7-phenyl-1,4-thiazepan-6-yl]-L-alaninamide] | 93 to 99 °C |
| C[C@H](NC(=O)Cc1ccccc1)C(=O)N[C@@H]1C(=O)Nc2ccccc2S[C@@H]1c1ccccc1 [Example 97, N^1-[(2R,3R)-4-Oxo-2-phenyl-2,3,4,5-tetrahydro-1,5-benzothiazepin-3-yl]-N^2-(phenylacetyl)-L-alaninamide] | 114 to 124 °C |
| C[C@H](NC(=O)Cc1cc(F)cc(F)c1)C(=O)N[C@@H]1C(=O)Nc2ccccc2S[C@@H]1c1cccs1 [Example 99, N^2-[(3,5-Difluorophenyl)acetyl]-N^1-[(2S,3R)-4-oxo-2-(2-thienyl)-2,3,4,5-tetrahydro-1,5-benzothiazepin-3-yl]-L-alaninamide] | 117 to 119 °C |
| C[C@H](NC(=O)Cc1cc(F)cc(F)c1)C(=O)N[C@@H]1C(=O)Nc2ccccc2S[C@@H]1c1ccco1 [Example 101, N^2-[(3,5-Difluorophenyl)acetyl]-N^1-[(2S,3R)-2-(2-furyl)-4-oxo-2,3,4,5-tetrahydro-1,5-benzothiazepin-3-yl]-L-alaninamide] | 125 to 130 °C |
| C[C@H](NC(=O)Cc1cc(F)cc(F)c1)C(=O)N[C@@H]1C(=O)Nc2ccccc2S[C@H]1c1ccoc1 [Example 102, N^2-[(3,5-Difluorophenyl)acetyl]-N^1-[(2S,3R)-2-(3-furyl)-4-oxo-2,3,4,5-tetrahydro-1,5-benzothiazepin-3-yl]-L-alaninamide] | 115 to 120 °C |
| C[C@H](NC(=O)Cc1cc(F)cc(F)c1)C(=O)N[C@@H]1C(=O)Nc2ccccc2S[C@@H]1c1cc(Br)cs1 [Example 104, N^1-[(2S,3R)-2-(4-Bromo-2-thienyl)-4-oxo-2,3,4,5-tetrahydro-1,5-benzothiazepin-3-yl]-N^2-[(3,5-difluorophenyl)acetyl]-L-alaninamide] | 145 to 155 °C |

More lines, now with the values ahead:

| melting point | Structure (SMILES) |
| --- | --- |
| 115 to 120 °C | N[C@@H](Cc1ccccc1)C(=O)N(C(=O)Cc1cc(F)cc(F)c1)[C@@H]1C(=O)Nc2ccccc2S[C@@H]1c1ccccc1 [Example 105, N-[(3,5-Difluorophenyl)acetyl]-N-[(2R,3R)-4-oxo-2-phenyl-2,3,4,5-tetrahydro-1,5-benzothiazepin-3-yl]-L-phenylalaninamide] |
| 125 to 130 °C | O=C(Cc1cc(F)cc(F)c1)NCC(=O)N[C@@H]1C(=O)Nc2ccccc2S[C@@H]1c1ccccc1 [Example 106, N^2-[(3,5-Difluorophenyl)acetyl]-N^1-[(2R,3R)-4-oxo-2-phenyl-2,3,4,5-tetrahydro-1,5-benzothiazepin-3-yl]glycinamide] |
| 110 to 115 °C | CC(C)[C@H](NC(=O)Cc1cc(F)cc(F)c1)C(=O)N[C@@H]1C(=O)Nc2ccccc2S[C@@H]1c1ccccc1 [Example 107, N^2-[(3,5-Difluorophenyl)acetyl]-N^1-[(2R,3R)-4-oxo-2-phenyl-2,3,4,5-tetrahydro-1,5-benzothiazepin-3-yl]-L-valinamide] |
| 85 to 90 °C | CSCC[C@H](NC(=O)Cc1cc(F)cc(F)c1)C(=O)N[C@@H]1C(=O)Nc2ccccc2S[C@@H]1c1ccccc1 [Example 109, N^2-[(3,5-Difluorophenyl)acetyl]N^1-[(2R,3R)-4-oxo-2-phenyl-2,3,4,5-tetrahydro-1,5-benzothiazepin-3-yl]-L-methioninamide] |
| 85 to 90 °C | O=C(Cc1cc(F)cc(F)c1)N[C@@H](Cc1cc2ccccc2[nH]1)C(=O)N[C@@H]1C(=O)Nc2ccccc2S[C@@H]1c1ccccc1 [Example 110, N^2-[(3,5-Difluorophenyl)acetyl]-3-(1H-indol-2-yl)-N^1-[(2R,3R)-4-oxo-2-phenyl-2,3,4,5-tetrahydro-1,5-benzothiazepin-3-yl]-L-alaninamide] |
| 122 to 136 °C | C[C@H](NC(=O)Cc1ccccc1)C(=O)N[C@@H]1C(=O)Nc2ccccc2O[C@@H]1c1ccccc1 [Example 113, N^1-[(2R,3S)-4-Oxo-2-phenyl-2,3,4,5-tetrahydro-1,5-benzoxazepin-3-yl]-N^2-(phenylacetyl)-L-alaninamide] |
| 115 to 135 °C | C[C@H](NC(=O)Cc1ccccc1F)C(=O)N[C@@H]1C(=O)Nc2ccccc2O[C@@H]1c1ccccc1 [Example 114, N^2-[(2-Fluorophenyl)acetyl]-N^1-[(2R,3S)-4-oxo-2-phenyl-2,3,4,5-tetrahydro-1,5-benzoxazepin-3-yl]-L-alaninamide] |
| 130 to 140 °C | C[C@H](NC(=O)Cc1cccc(F)c1)C(=O)N[C@@H]1C(=O)Nc2ccccc2O[C@@H]1c1ccccc1 [Example 115, N^2-[(3-Fluorophenyl)acetyl]-N^1-[(2R,3S)-4-oxo-2-phenyl-2,3,4,5-tetrahydro-1,5-benzoxazepin-3-yl]-L-alaninamide] |
| 130 to 140 °C | C[C@H](NC(=O)Cc1ccc(F)cc1)C(=O)N[C@@H]1C(=O)Nc2ccccc2O[C@@H]1c1ccccc1 [Example 116, N^2-[(4-Fluorophenyl)acetyl]-N^1-[(2R,3S)-4-oxo-2-phenyl-2,3,4,5-tetrahydro-1,5-benzoxazepin-3-yl]-L-alaninamide] |
